Data as given in patent US20240317744A1, “Bicyclic Ureas As Kinase Inhibitors” (Incyte Corporation, priority 2023, published 2024).

Assays:
[1] = target: catalytic domain (JH1, amino acids 808-1132) of human JAK2 (Homo sapiens, UniProt O60674); experiment: JAK2 HTRF Enzyme Activity Assay; assay type: biochemical; conditions: ATP 30 µM, 60 minutes at 25° C.; read-out: V617F ENZ 30 UM
[2] = target: T1, pseudo-kinase domain (JH2, amino-acids 536-812) of human V617F mutant JAK2 (Homo sapiens, UniProt O60674, F794H/V617F/W659A/W777A); experiment: JAK2 LanthaScreen JH2-V617F Binding Assay; conditions: JAK2 JH2-V617F 0.26 nM, 50 nM tracer, 1 hour at 25° C.; read-out: JH2 BIND V617F
T1 construct: pseudo-kinase domain (JH2, amino-acids 536-812 with 3 surface mutations W659A, W777A, F794H); His (C); purchased BPS Bioscience 79498; host or cells: baculovirus expression system
Procedure: Example C. JAK2 LanthaScreen JH2-V617F Binding Assay
JAK2 JH2-V617F binding assay utilizes pseudo-kinase domain (JH2, amino-acids 536-812 with 3 surface mutations W659A, W777A, F794H) of human V617F mutant JAK2 expressed as C-terminal His-Avi-tagged, biotinylated protein in a baculovirus expression system (BPS Bioscience, Catalog #79498). The assay was conducted in black 384-well polystyrene plates in a final reaction volume of 20 μL. JAK2 JH2-V617F (0.26 nM) was incubated with compounds (100 nL serially diluted in DMSO) in the presence of 50 nM Fluorescent JAK2-JH2 Tracer (MedChem Express Catalog #HY-102055) and 0.25 nM Streptavidin-Tb cryptate (Cisbio Part #610SATLB) in assay buffer (50 mM Tris, pH=7.5, 10 mM MgCl2, 0.01% Brij-35, 0.1% BSA, 1 mM EGTA, 5% Glycerol and 5 mM DTT). Non-specific binding was accessed in the presence of 2 mM ATP. After incubation for 1 hour at 25° C., LanthaScreen signals were read on a PHERAstar FS plate reader (BMG LABTECH). Data was analyzed with IDBS XLfit and GraphPad Prism 5.0 software using a four parameter dose response curve to determine IC50 for each compound.

catalytic domain (JH1, amino acids 808-1132) of human JAK2, sequence (O60674 808-1132 limits assumed): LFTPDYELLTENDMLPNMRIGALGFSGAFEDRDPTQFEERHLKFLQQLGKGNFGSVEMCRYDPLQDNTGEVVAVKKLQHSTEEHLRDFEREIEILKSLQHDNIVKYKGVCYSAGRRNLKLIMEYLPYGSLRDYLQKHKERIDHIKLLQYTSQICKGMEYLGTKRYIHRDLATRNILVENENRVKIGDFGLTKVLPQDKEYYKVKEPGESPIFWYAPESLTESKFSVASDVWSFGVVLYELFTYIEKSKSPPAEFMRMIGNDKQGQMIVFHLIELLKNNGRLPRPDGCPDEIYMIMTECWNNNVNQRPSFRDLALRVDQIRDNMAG
T1 sequence (O60674 536-812 V617F/W659A/W777A/F794H): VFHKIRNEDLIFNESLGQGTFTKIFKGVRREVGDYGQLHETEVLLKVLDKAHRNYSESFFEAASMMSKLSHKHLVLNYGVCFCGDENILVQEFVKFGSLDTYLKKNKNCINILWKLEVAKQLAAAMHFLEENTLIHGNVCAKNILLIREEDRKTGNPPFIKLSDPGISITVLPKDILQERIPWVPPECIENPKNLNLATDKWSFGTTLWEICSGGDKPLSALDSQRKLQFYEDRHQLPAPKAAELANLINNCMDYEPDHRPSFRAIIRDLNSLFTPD

SMILES	IC50 [1]	IC50 [2]
[2H]C([2H])([2H])n1c(=O)n([C@@H]2CC[C@@]([2H])(NC(=O)OC)C2)c2cc(Nc3cc(-c4cccnc4C(F)(F)F)cc(-c4ncc(C(C)(C)O)s4)n3)ncc21 [Example 167, Methyl ((1R,3R)-3-(6-((6′-(5-(2-hydroxypropan-2-yl)thiazol-2-yl)-2-(trifluoromethyl)-[3,4′-bipyridin]-2′-yl)amino)-3-(methyl-d3)-2-oxo-2,3-dihydro-1H-imidazo[4,5-c]pyridin-1-yl)cyclopentyl-1-d)carbamate]	> 1 µM	≤ 0.01 µM
[2H]C([2H])([2H])n1c(=O)n([C@@H]2CC[C@](C)(NC(C)=O)C2)c2cc(Nc3cc(C(C)(C)O)cc(-c4cnc(C(F)(F)F)s4)n3)ncc21 [Example 146, N-((1S,3R)-3-(6-((4-(2-Hydroxypropan-2-yl)-6-(2-(trifluoromethyl)thiazol-5-yl)pyridin-2-yl)amino)-3-(methyl-d3)-2-oxo-2,3-dihydro-1H-imidazo[4,5-c]pyridin-1-yl)-1-methylcyclopentyl)acetamide]	> 1 µM	≤ 0.01 µM
[2H]C([2H])([2H])n1c(=O)n([C@@H]2CC[C@](C)(NC(=O)OC)C2)c2cc(Nc3ccc4c(n3)c(-c3cnn(C(F)(F)F)c3)nn4CC(C)(C)O)ncc21 [Example 128, Methyl ((1S,3R)-3-(6-((1-(2-hydroxy-2-methylpropyl)-3-(1-(trifluoromethyl)-1H-pyrazol-4-yl)-1H-pyrazolo[4,3-b]pyridin-5-yl)amino)-3-(methyl-d3)-2-oxo-2,3-dihydro-1H-imidazo[4,5-c]pyridin-1-yl)-1-methylcyclopentyl)carbamate]	> 1 µM	≤ 0.01 µM
[2H]C([2H])([2H])n1c(=O)n([C@@H]2CC[C@](C)(NC(C)=O)C2)c2cc(Nc3cc(C(C)(C)O)cc(-c4cnc(OC(C)C)s4)n3)ncc21 [Example 151, N-((1S,3R)-3-(6-((4-(2-hydroxypropan-2-yl)-6-(2-isopropoxythiazol-5-yl)pyridin-2-yl)amino)-3-(methyl-d3)-2-oxo-2,3-dihydro-1H-imidazo[4,5-c]pyridin-1-yl)-1-methylcyclopentyl)acetamide]	> 1 µM	≤ 0.01 µM
[2H]C([2H])([2H])n1c(=O)n([C@@H]2CC[C@@H](NC(=O)OC)C2)c2cc(Nc3ccc4c(n3)c(-c3cnn(C(F)(F)F)c3)cn4C3CCOCC3)ncc21 [Example 109, Methyl ((1R,3R)-3-(3-(methyl-d3)-2-oxo-6-((1-(tetrahydro-2H-pyran-4-yl)-3-(1-(trifluoromethyl)-1H-pyrazol-4-yl)-1H-pyrrolo[3,2-b]pyridin-5-yl)amino)-2,3-dihydro-1H-imidazo[4,5-c]pyridin-1-yl)cyclopentyl)carbamate]	> 1 µM	≤ 0.01 µM
[2H]C([2H])([2H])n1c(=O)n([C@@H]2CC[C@](C)(NC(C)=O)C2)c2cc(Nc3cc(C(C)(C)O)cc(-c4cnc(OC)s4)n3)ncc21 [Example 152, N-((1S,3R)-3-(6-((4-(2-Hydroxypropan-2-yl)-6-(2-methoxythiazol-5-yl)pyridin-2-yl)amino)-3-(methyl-d3)-2-oxo-2,3-dihydro-1H-imidazo[4,5-c]pyridin-1-yl)-1-methylcyclopentyl)acetamide]	> 1 µM	≤ 0.01 µM
[2H]C([2H])([2H])n1c(=O)n([C@@H]2CC[C@@]([2H])(NC(=O)OC)C2)c2cc(Nc3cc(C(C)(C)O)cc(-c4ncc(C(F)(F)F)s4)n3)ncc21 [Example 158, Methyl ((1R,3R)-3-(6-((4-(2-hydroxypropan-2-yl)-6-(5-(trifluoromethyl)thiazol-2-yl)pyridin-2-yl)amino)-3-(methyl-d3)-2-oxo-2,3-dihydro-1H-imidazo[4,5-c]pyridin-1-yl)cyclopentyl-1-d)carbamate]	> 1 µM	≤ 0.01 µM
[2H]C([2H])([2H])n1c(=O)n([C@@H]2CC[C@]([2H])(NC(=O)OC)C2)c2cc(Nc3cc(C(C)(C)O)cc(-c4ncc(C(F)(F)F)s4)n3)ncc21 [Example 159, Methyl ((1S,3R)-3-(6-((4-(2-hydroxypropan-2-yl)-6-(5-(trifluoromethyl)thiazol-2-yl)pyridin-2-yl)amino)-3-(methyl-d3)-2-oxo-2,3-dihydro-1H-imidazo[4,5-c]pyridin-1-yl)cyclopentyl-1-d)carbamate]	> 1 µM	≤ 0.01 µM
[2H]C([2H])([2H])n1c(=O)n([C@@H]2CC[C@@]([2H])(NC(=O)OC)C2)c2cc(Nc3cc(C(C)(C)O)c4nc(C)n(-c5cnn(C(F)F)c5)c4n3)ncc21 [Example 169, Methyl ((1R,3R)-3-(6-((3-(1-(difluoromethyl)-1H-pyrazol-4-yl)-7-(2-hydroxypropan-2-yl)-2-methyl-3H-imidazo[4,5-b]pyridin-5-yl)amino)-3-(methyl-d3)-2-oxo-2,3-dihydro-1H-imidazo[4,5-c]pyridin-1-yl)cyclopentyl-1-d)carbamate]	> 1 µM	≤ 0.01 µM
[2H]C([2H])([2H])n1c(=O)n([C@@H]2CC[C@](C)(NC(C)=O)C2)c2cc(Nc3cc(-c4cnccc4C(F)(F)F)c4nc(C)c(-c5cnn(C(F)F)c5)n4n3)ncc21 [Example 168, N-((1S,3R)-3-(6-((3-(1-(Difluoromethyl)-1H-pyrazol-4-yl)-2-methyl-8-(4-(trifluoromethyl)pyridin-3-yl)imidazo[1,2-b]pyridazin-6-yl)amino)-3-(methyl-d3)-2-oxo-2,3-dihydro-1H-imidazo[4,5-c]pyridin-1-yl)-1-methylcyclopentyl)acetamide]	> 1 µM	≤ 0.01 µM
[2H]C1(NC(=O)OC)CC[C@@H](n2c(=O)n(C([2H])([2H])[2H])c3cnc(Nc4ccc5c(n4)c(-c4cnn(C(F)(F)F)c4)cn5C4(C#N)CC4)cc32)C1 (stereo partly drawn) [Example 113, Methyl ((3R)-3-(6-((1-(1-cyanocyclopropyl)-3-(1-(trifluoromethyl)-1H-pyrazol-4-yl)-1H-pyrrolo[3,2-b]pyridin-5-yl)amino)-3-(methyl-d3)-2-oxo-2,3-dihydro-1H-imidazo[4,5-c]pyridin-1-yl)cyclopentyl-1-d)carbamate]	> 1 µM	≤ 0.01 µM
[2H]C1(NC(=O)OC)CC[C@@H](n2c(=O)n(C([2H])([2H])[2H])c3cnc(Nc4ccc5c(n4)c(-c4cnn(C(F)(F)F)c4)nn5C4CCOCC4)cc32)C1 (stereo partly drawn) [Example 132, Methyl ((3R)-3-(3-(methyl-d3)-2-oxo-6-((1-(tetrahydro-2H-pyran-4-yl)-3-(1-(trifluoromethyl)-1H-pyrazol-4-yl)-1H-pyrazolo[4,3-b]pyridin-5-yl)amino)-2,3-dihydro-1H-imidazo[4,5-c]pyridin-1-yl)cyclopentyl-1-d)carbamate]	> 1 µM	≤ 0.01 µM
[2H]C([2H])([2H])n1c(=O)n([C@@H]2CC[C@](C)(NC(C)=O)C2)c2cc(Nc3ccc4c(n3)c(-c3cnn(C(F)(F)F)c3)nn4CC(C)(C)O)ncc21 [Example 129, N-((1S,3R)-3-(6-((1-(2-Hydroxy-2-methylpropyl)-3-(1-(trifluoromethyl)-1H-pyrazol-4-yl)-1H-pyrazolo[4,3-b]pyridin-5-yl)amino)-3-(methyl-d3)-2-oxo-2,3-dihydro-1H-imidazo[4,5-c]pyridin-1-yl)-1-methylcyclopentyl)acetamide]	> 1 µM	≤ 0.01 µM
[2H]C1(NC(=O)OC)CC[C@@H](n2c(=O)n(C([2H])([2H])[2H])c3cnc(Nc4cc(C(C)(C)O)c5ccn(-c6cnn(C(F)(F)F)c6)c5n4)cc32)C1 (stereo partly drawn) [Example 131, Methyl ((3R)-3-(6-((4-(2-hydroxypropan-2-yl)-1-(1-(trifluoromethyl)-1H-pyrazol-4-yl)-1H-pyrrolo[2,3-b]pyridin-6-yl)amino)-3-(methyl-d3)-2-oxo-2,3-dihydro-1H-imidazo[4,5-c]pyridin-1-yl)cyclopentyl-1-d)carbamate]	> 1 µM	≤ 0.01 µM
[2H]C([2H])([2H])n1c(=O)n(C23CCC(NC(C)=O)(CC2)CC3)c2cc(Nc3cc(C(C)(C)O)cc(-c4ncc(C(F)(F)F)s4)n3)ncc21 [Example 140, N-(4-(6-((4-(2-Hydroxypropan-2-yl)-6-(5-(trifluoromethyl)thiazol-2-yl)pyridin-2-yl)amino)-3-(methyl-d3)-2-oxo-2,3-dihydro-1H-imidazo[4,5-c]pyridin-1-yl)bicyclo[2.2.2]octan-1-yl)acetamide]	> 1 µM	≤ 0.01 µM
[2H]C([2H])([2H])n1c(=O)n([C@@H]2CC[C@](C)(NC(=O)C3CC3)C2)c2cc(Nc3ccc4nn(CC(C)(C)O)c(-c5cnn(C(F)(F)F)c5)c4n3)ncc21 [Example 123, N-((1S,3R)-3-(6-((2-(2-Hydroxy-2-methylpropyl)-3-(1-(trifluoromethyl)-1H-pyrazol-4-yl)-2H-pyrazolo[4,3-b]pyridin-5-yl)amino)-3-(methyl-d3)-2-oxo-2,3-dihydro-1H-imidazo[4,5-c]pyridin-1-yl)-1-methylcyclopentyl)cyclopropanecarboxamide]	> 1 µM	≤ 0.01 µM
